Assay results reported in paper PMC10741632, “Detection of Dibutyl Phthalate in Surface Water by Fluorescence Polarization Immunoassay” (Biosensors, 2023).
≈ marks a conversion by molar mass, not a printed value.

Tested on: monoclonal antibody against DBP (MAb-DBP)
Experiment: competitive fluorescence polarization immunoassay with DBP-AMF tracer ([…] MAb-DBP, […] tracer)
Format: binding, Mus musculus

CCCCOC(=O)c1ccccc1C(=O)OCCCC [Dibutyl phthalate]
IC50: 0.04 ± 0.002 µg/mL (≈ 0.144 µM)
